{
  "source": "patent US11767313B2",
  "about": "“Compounds as nuclear transport modulators and uses thereof” (XWPHARMA LTD., priority 2018, dated 2023)",
  "key": {"[1]": {"test_system": "U87MG", "assay": "CellTiter-Glo cell proliferation assay, U87MG", "format": "cell-based, human", "details": "Homo sapiens, U-87 MG, 72 h, U87MG; 72 hours; Table 1; read-out: Growth inhibition (IC50)", "description": "(§1) CellTiter-Glo® Luminescent Cell Viability assay (with Promega CellTiter 96® Luminescent CellTiter-Glo® kit) was used to study the proliferation inhibition by test compounds. Compounds were resuspended in DMSO to make a 25 mM stock suspension. Cells of cancer cell lines or normal tissues were seeded in 96-well plates at 1,500 to 5,000 cells/well overnight. Compounds were 2- or 3-fold diluted serially to obtain 10 concentrations. Then, the drugs were added to the cell wells by Bravo (Agilent) and incubated for 72 hours. The cells were lysed by adding CellTiter-Glo® Reagent (per manufacturer's instructions) and subsequently, the luminescence was read using EnVision® (PerkinElmer).\n(§2) The percent of growth was calculated as follows. DMSO-treated cells were employed as vehicle control (High control, HC) and culture medium alone was employed as background (Low control, EC). % growth=100×(Lum sample−Lum EC)/(Lum HC−Lum EC). The ICso was calculated by concentration-response curve fitting using Graphpad Prism.\n(§3) Hematological cancer cell lines tested included OCI-AML3, MV-4-11, KG-1, Kasumi-1, K562, THP-1; solid cancer cell lines tested included U87MG, U251, T98G, LN229, A172, H460, H2009, A549; normal cell lines tested included HCN2 and 3T3-L1. […] However, they were not toxic to in vitro cultured normal cells."}, "[2]": {"test_system": "A549", "assay": "CellTiter-Glo cell proliferation assay, A549", "format": "cell-based", "details": "Homo sapiens, 72 hours, Table 1, read-out: Growth inhibition (IC50)", "description": "as §1, §2, §3"}, "[3]": {"test_system": "H460", "assay": "CellTiter-Glo cell proliferation assay, H460", "format": "cell-based", "details": "Homo sapiens, NCI-H460, 72 hours, Table 1, read-out: Growth inhibition (IC50)", "description": "as §1, §2, §3"}, "[4]": {"test_system": "H2009", "assay": "CellTiter-Glo cell proliferation assay, H2009", "format": "cell-based", "details": "Homo sapiens, NCI-H2009, 72 hours, Table 1, read-out: Growth inhibition (IC50)", "description": "as §1, §2, §3"}, "[5]": {"test_system": "MV411", "assay": "CellTiter-Glo cell proliferation assay, MV411", "format": "cell-based", "details": "Homo sapiens, MV4-11, 72 hours, Table 1, read-out: Growth inhibition (IC50)", "description": "as §1, §2, §3"}, "[6]": {"test_system": "KG1", "assay": "CellTiter-Glo cell proliferation assay, KG1", "format": "cell-based", "details": "Homo sapiens, KG-1, 72 hours, Table 1, read-out: Growth inhibition (IC50)", "description": "as §1, §2, §3"}, "[7]": {"test_system": "Kasumi-1", "assay": "CellTiter-Glo cell proliferation assay, Kasumi-1", "format": "cell-based", "details": "Homo sapiens, 72 hours, Table 1, read-out: Growth inhibition (IC50)", "description": "as §1, §2, §3"}, "[8]": {"test_system": "OCI-AML3", "assay": "CellTiter-Glo cell proliferation assay, OCI-AML3", "format": "cell-based", "details": "Homo sapiens, OCI-AML-3, 72 hours, Table 1, read-out: Growth inhibition (IC50)", "description": "as §1, §2, §3"}, "[9]": {"test_system": "K562", "assay": "CellTiter-Glo cell proliferation assay, K562", "format": "cell-based", "details": "Homo sapiens, 72 hours, Table 1, read-out: Growth inhibition (IC50)", "description": "as §1, §2, §3"}, "[10]": {"test_system": "THP-1", "assay": "CellTiter-Glo cell proliferation assay, THP-1", "format": "cell-based", "details": "Homo sapiens, 72 hours, Table 1, read-out: Growth inhibition (IC50)", "description": "as §1, §2, §3"}, "[11]": {"assay": "Pharmacokinetic profile summary", "format": "in vivo, mice or rats", "description": "Blood was collected from mice (n=3, or 5) to contribute to the total of 10 time points (pre-dose, 5 min, 15 min, 30 min, 1 hour, 2 hours, 4 hours, 8 hours, 12 hours and 24 hours). At the designated time points, animals were anaesthetized under isoflurane, and approximately 110 μL of blood per time point was collected via retro-orbital puncture into pre-cooled K2EDTA tubes. Blood samples were put on wet ice and centrifuged (2000 g, 5 min at 4° C.) to obtain plasma within 30 minutes of sample collection. All samples were stored frozen at approximately −80° C. until analysis. Prior to analysis, samples were mixed with internal standard in acetonitrile, vortexed, centrifuged, and supernatant was injected for analysis. Concentration of compounds in plasma was determined using LC-MS-MS instrumentation (API 4000, Triple Quadrupole LC/MS/MS Mass Spectrometer). AUC values were calculated using Phoenix Win Nonlin 6.3 software package, PO-Noncompartmental model 200 (extravascular input).\nFollowing collection, brain tissue was rinsed with cold saline, dried on filter paper, weighed and snap-frozen by placing on dry ice. All samples were stored frozen at approximately −80° C. until analysis. At the time of analysis, brain tissue was homogenized (homogenizing solution PBS, pH 7.4), mixed with internal standard in acetonitrile, vortexed, centrifuged, and supernatant was injected for analysis. Concentration of compounds in plasma was determined using LC-MS-MS instrumentation (API 4000, Triple Quadrupole LC/MS/MS Mass Spectrometer). Plasma samples were treated with the identical method (except homogenization step) and the concentration of compound in each matrix was calculated based on generated standard curves.\nThe pharmacokinetic profile of test compounds in mice or rats was determined from several test compounds was determined using the methods described in Example 22."}, "[12]": {"biological_target": "XPO1 (Homo sapiens, UniProt O14980)", "sequence (O14980 whole entry)": "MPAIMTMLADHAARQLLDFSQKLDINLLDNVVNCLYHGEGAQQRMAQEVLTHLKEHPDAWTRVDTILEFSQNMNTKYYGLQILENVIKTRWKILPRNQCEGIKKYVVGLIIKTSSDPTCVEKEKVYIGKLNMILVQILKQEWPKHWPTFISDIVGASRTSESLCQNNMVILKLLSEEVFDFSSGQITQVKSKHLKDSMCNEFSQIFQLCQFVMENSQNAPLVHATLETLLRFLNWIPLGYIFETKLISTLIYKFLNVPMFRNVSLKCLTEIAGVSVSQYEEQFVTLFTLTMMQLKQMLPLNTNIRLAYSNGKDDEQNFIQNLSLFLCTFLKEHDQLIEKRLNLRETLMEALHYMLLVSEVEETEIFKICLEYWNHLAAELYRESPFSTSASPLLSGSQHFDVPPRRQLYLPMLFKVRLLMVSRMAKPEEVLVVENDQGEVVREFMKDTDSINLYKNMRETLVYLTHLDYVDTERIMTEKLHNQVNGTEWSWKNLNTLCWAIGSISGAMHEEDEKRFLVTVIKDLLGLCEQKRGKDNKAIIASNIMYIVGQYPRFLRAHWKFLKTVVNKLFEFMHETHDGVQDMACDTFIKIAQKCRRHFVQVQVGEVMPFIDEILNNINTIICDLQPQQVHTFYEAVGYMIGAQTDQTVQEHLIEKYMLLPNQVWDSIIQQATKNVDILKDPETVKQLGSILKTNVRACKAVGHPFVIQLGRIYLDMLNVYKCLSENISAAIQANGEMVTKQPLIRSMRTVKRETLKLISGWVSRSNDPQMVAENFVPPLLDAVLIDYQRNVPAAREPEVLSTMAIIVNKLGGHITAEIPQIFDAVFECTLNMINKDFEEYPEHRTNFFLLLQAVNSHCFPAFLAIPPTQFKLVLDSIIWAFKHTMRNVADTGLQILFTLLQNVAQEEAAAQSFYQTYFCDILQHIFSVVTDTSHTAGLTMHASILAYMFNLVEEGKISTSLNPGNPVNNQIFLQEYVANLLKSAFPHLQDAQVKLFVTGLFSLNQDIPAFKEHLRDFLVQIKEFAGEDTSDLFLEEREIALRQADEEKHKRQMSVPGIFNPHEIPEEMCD", "assay": "REV-GFP translocation assay in U2OS cells", "format": "cell-based", "set-up": "endogenous in cells; host or cells: U2OS cells stably expressing REV-GFP (clones from HD Biosciences)", "description": "LTD in China, and cells were cultured with growth medium. […] The highest Leptomycin B (LMB) concentration was set to 50 nM and serially diluted as the positive control, while the highest concentrations of other compounds were set to 10 μM. The cells treated with various drugs or DMSO, were incubated at 37° C. and 5% CO2 for 1 h. Then, cells were fixed with 4% formaldehyde for 15 min at room temperature. The cells were washed and stained with 100 μL Hoechst 33342 working solution for 10 min at room temperature in dark, after which the cell fluorescence was imaged with the High-Content Imaging System, ImageXpress® (Molecular Devices) using the 20× objective. The filters were set for Hoechst (350/461 nm) and GFP/FITC (488/509 nm) (wavelength for excitation and emission maxima). The % effect of REV nuclear translocation was calculated with the following formula: % effect=([…]- signals from testing compounds; ILMB-signals of 50 nM LMB group; ICTRL-signals of vehicle control group."}},
  "note": "Like-named read-outs stand apart in the source and are kept apart here.",
  "data": [
    {"compound": "NC(=O)/C(=C/n1cnc(-c2cc(C(F)(F)F)cc(S(F)(F)(F)(F)F)c2)n1)c1cncnc1", "note": "[Compound IV, (E)-3-(3-(3-(Pentafluorosulfaneyl)-5-(trifluoromethyl)phenyl)-1H-1,2,4-triazol-1-yl)-2-(pyrimidin-5-yl)acrylamide]", "values": [
      {"measurement": "IC50", "setting": "[1]", "value": 194, "unit": "nM"},
      {"measurement": "IC50", "setting": "[2]", "value": 1860, "unit": "nM"},
      {"measurement": "IC50", "setting": "[3]", "value": 306, "unit": "nM"},
      {"measurement": "IC50", "setting": "[4]", "value": 453, "unit": "nM"},
      {"measurement": "IC50", "setting": "[5]", "value": 110, "unit": "nM"},
      {"measurement": "IC50", "setting": "[6]", "value": 698, "unit": "nM"},
      {"measurement": "IC50", "setting": "[7]", "value": 124, "unit": "nM"},
      {"measurement": "IC50", "setting": "[8]", "value": 341, "unit": "nM"},
      {"measurement": "IC50", "setting": "[9]", "value": 1750, "unit": "nM"},
      {"measurement": "IC50", "setting": "[10]", "value": 838, "unit": "nM"},
      {"measurement": "Kp", "setting": "[11]; brain/plasma, 5 mpk/AUC Ratio, read-out: B/P ratio", "value": 0.29},
      {"measurement": "bioavailability", "setting": "[11]; plasma, oral, mice or rats", "value": 27, "unit": "%"},
      {"measurement": "AUC", "setting": "[11]; plasma, po, 10 mg/kg, 10 mpk", "value": 1060, "unit": "ng·h/mL"},
      {"measurement": "half-life", "setting": "[11]; plasma, mice or rats", "value": 2.9, "unit": "h"},
      {"measurement": "Cmax", "setting": "[11]; po, 5 mg/kg, 5 mpk, first number of Plasma/brain pair, read-out: Cmax/(ng/mL) Plasma", "value": 276, "unit": "ng/mL"},
      {"measurement": "Cmax", "setting": "[11]; po, 5 mg/kg, 5 mpk, second number of Plasma/brain pair, read-out: Cmax/(ng/mL) brain", "value": 68.5, "unit": "ng/mL"},
      {"measurement": "Cmax", "setting": "[11]; po, 10 mg/kg, plasma, 10 mpk, read-out: Cmax (ng/ml) plasma/10 mpk", "value": 312, "unit": "ng/mL"},
      {"measurement": "EC50", "setting": "[12]; REV-EGFP U2OS cells, 1 h, Table 2, read-out: Rev-GFP/EC50", "value": 0.0148, "unit": "µM"},
      {"measurement": "IC50", "setting": "[12]; Table 10, first (or only) value of the cell", "value": 14.8, "unit": "nM"},
      {"measurement": "EC50", "setting": "[12]; Table 13, read-out: Rev-GFP assay/μM", "value": 0.015, "unit": "µM"}
    ]}
  ]
}
